Data taken from publication PMC8395244, “The Oxoglutarate Binding Site and Regulatory Mechanism Are Conserved in Ammonium Transporter Inhibitors GlnKs from Methanococcales” (International Journal of Molecular Sciences, 2021).

Legend:
MtGlnK2 = target: T1, MtGlnK2 (Methanothermococcus thermolithotrophicus, UniProt Z9RMX6QOV2); test: X-ray crystal structure ([…] Å); assay type: binding; conditions: co-crystallised with 2 mM ATP, 2 mM 2OG, 2 mM MgCl2; pH 6.5; inter-subunit cleft
T1 construct: N-terminal His-tag (pET-28a(+)), tag kept (partially visible); codon-optimised gene in E. coli BL21(DE3); circa 12 kDa monomer, trimer; site between adjacent subunits

MjGlnK1^woT = target: T2, MjGlnK1^woT (Methanocaldococcus jannaschii, UniProt Q60381); test: X-ray crystal structure ([…] Å); assay type: binding; conditions: co-crystallised with 2 mM ATP, 2 mM 2OG, 2 mM MgCl2; pH 8.5; inter-subunit cleft
T2 construct: gene glnK1; untagged (stop codon before XhoI in pET-24b(+)); codon-optimised gene in E. coli BL21(DE3); circa 12 kDa monomer, trimer; 2J9D/2J9E are earlier structures of this protein (2J9E C-terminally tagged)
T2 sequence (Q60381 whole entry): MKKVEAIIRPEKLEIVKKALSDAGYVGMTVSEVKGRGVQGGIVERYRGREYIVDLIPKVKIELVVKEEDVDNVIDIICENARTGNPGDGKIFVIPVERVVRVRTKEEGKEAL

| SMILES | X-ray crystal structure (1.16 Å) (MtGlnK2) | X-ray crystal structure (1.20 Å) (MjGlnK1^woT) |
| --- | --- | --- |
| O=C(O)CCC(=O)C(=O)O [2OG] | MtGlnK2 and MjGlnK1^woT structures, co-crystallized with Mg-ATP and 2OG | MtGlnK2 and MjGlnK1^woT structures, co-crystallized with Mg-ATP and 2OG |
| Nc1ncnc2c1ncn2[C@@H]1O[C@H](COP(=O)(O)OP(=O)(O)OP(=O)(O)O)[C@@H](O)[C@H]1O [ATP] | MtGlnK2 and MjGlnK1^woT structures, co-crystallized with Mg-ATP and 2OG | MtGlnK2 and MjGlnK1^woT structures, co-crystallized with Mg-ATP and 2OG |
